No end group written: not given here.
System: ins-6 lof worms
Experiment: NaCl chemotaxis assay after rescue-by-feeding
Type: in vivo, C. elegans
Settings: ins-6 mutants; 750 mM NaCl
Protocol: All animals were maintained on bacterial lawns of OP50 E. coli, at 20° C., on NGM agar plates until the start of experiments. Mutant or control animals were transferred onto lawns of DH5α E. coli expressing either scramble peptide or the rescue peptide-of-interest on NGM plates containing […] AMP and 1 mM IPTG. Animals were reared on the peptide-expressing lawns for at least 48 hours at 20° C. before assaying for rescue of mutant phenotype at the appropriate developmental stage.
A salt chemotaxis assay was performed as previously described in Leinwand, S. G. & Chalasani, S. H. Nature neuroscience 16, 1461-1467 (2013); Bargmann, C. I. & Horvitz, H. R. Neuron 7, 729-742 (1991) to test the functionality of ins-6 after rescue-by-feeding. Wild-type (N2) and ins-6 worms were fed either scramble or INS-6 peptide passing 4-6 L4 larval onto an NGM plate containing […] AMP and 1 mM IPTG with 75 μL of peptide OD600=1.0. These worms were grown at 20° C. for about 4 days until the progeny of the initial L4 worms were young adults.
The day prior to testing, a thin, 10 mL layer of agar was added to 10 cm petri dishes to generate a 10 cm Chemotaxis Plates (5 mM KPO4 (pH 6.0), 1 μM MgSO4, 1 μM CaCl2), 20 g/L agar, and 8 g/L Difco Nutrient Broth). To prepare the “high salt” plates, 750 mM NaCl was added prior to plate pouring. The high salt plate were stored at 4° C. for up to one month, while the Chemotaxis Plates were made one day prior to testing. To create the high and low salt plugs, the back end of a Pasteur pipette was used to punch a 5 mm plug out of each plate. These 2 plugs were placed on opposite edges of the plate. A 10 mm radius was be drawn around the location of the plugs (FIG. 1). Plates were stored, lightly covered, overnight at room temperature (˜20° C., <40% humidity). […]
Young adult hermaphrodites are tested in the Chemotaxis Assay with no more than three replicates per day, over a minimum of three days, with 100-200 worms/assay plate. The […] Chemotaxis Index (CI) was calculated as follows: […]

Substance: NSKLHRGGGRSRTSGSTGSMASHARGSPGLQ-NH2 [SCRAMBLE, scramble control peptide expressed in E. coli DH5α, negative control, reference compound]
- Chemotaxis Index: less than 0.4
